Patent US20110143993A1, “ENDOTHELIAL BASEMENT MEMBRANE TARGETING PEPTIDE LIGANDS” (The Brigham and Women's Hospital, Inc., priority 2009, published 2011)

What was measured:
[1] = Pharmacokinetic studies with 14C-paclitaxel or 3H-PLGA; parameters: species or system Sprague Dawley rats; details: male, Sprague Dawley, rat, in vivo
Procedure: 12 male Sprague Dawley rats weighing approximately 250 g with bilateral jugular catheters were obtained from Charles River Laboratories (Wilmington, Mass.). […] 200-500 μL of blood was collected via the right catheter at 1, 3, 6, 9 and 24 h after injection (n=6). In a separate study to assess targeted lipid-polymeric nanoparticle polymer levels in circulation, 400 μl, of NPs synthesized with ^3H-PLGA was injected in saline (100 μCi/mL) and 100 μL of blood was collected at 1, 3, 6, 9, 24, 48, 96 and 120 h after injection (n=6). Blood radioactivity was quantified as disintegrations per minute (DPM) using the PerkinElmer Tri-Carb 2810TR liquid scintillation analyzer.
Blood and tissue samples were processed as described by Chan J M, et al. Methods Mol. Biol. 2010; 624:163-175, with modifications. Solvable tissue solubilizer and Hionic-Fluor scintillation cocktail were purchased from PerkinElmer (Waltham, Mass.). All samples were weighed before processing. To prepare blood samples for radioisotope counting, 1.5 mL of tissue solubilizer was added to ≦0.5 mL blood and incubated at 55-60° C. for 2 h to dissolve the blood samples. Next, 50 μL of 0.5 mol/L EDTA-di-sodium salt solution was added to reduce foaming and 0.5 mL of hydrogen peroxide (300 g/L) was added dropwise with gentle agitation. Samples were further incubated at 55-60° C. for 1 h. To prepare tissue samples for radioisotope counting, kidney, spleen, liver, heart, and lung tissues (≦150 mg) were similarly processed, except with 4.0 mL of tissue solubilizer instead. Finally, 16 mL of Hionic-Fluor scintillation cocktail was added to both blood and tissue samples, and samples were subjected to temperature and light-adaptation for 1 h before counting. Sample radioactivity was read as disintegrations per minute (DPM) of either ^14C or ^3H radioisotopes using the PerkinElmer Tri-Carb 2810TR liquid scintillation analyzer, and standardized as DPM per gram of tissue or blood (DPM/g) based on the weight of the sample. […]

in vivo = details: male, Swiss albino, mouse, in vivo, iv
Procedure: (§1) Clinical monitoring over seven days was carried out for any signs of adverse effects.
(§2) At the end of the study, animals were sacrificed by CO2 inhalation. Gross necropsy was performed and H&E sections of the major organs (liver, lung, heart, spleen, kidney, nerves) were examined for any signs of toxicity.

Swiss albino mice = assay: in vivo
Procedure: as §1, §2

Matrigel [2] = assay: Phage clone binding to Matrigel (anti-M13 ELISA, ABTS absorbance); details: ABTS absorbance 405 nm vs 490 nm, 10^10 p.f.u. per clone
Procedure: 96-well plates were coated with 100 μL 1/50 dilutions of Matrigel in TBS overnight at 4° C., or TBS buffer only. Plates were blocked with 3% BSA/TBS for 2 h at RT and washed three times. 10^10 p.f.u. of each phage clone was added in 0.5% TBST in triplicate to either Matrigel or BSA-coated wells. Bound phage particles were detected with peroxidase-conjugated mouse anti-M13 monoclonal antibodies at 1/5000 dilution (Amersham Pharmacia Biotech, Piscataway, N.J.). After a 1 h incubation, the reaction was developed with 2,2′-azino-bis(3-ethylbenzthiazoline-6-sulphonic acid) (ABTS) (Amersham) and the absorbance was read at 405 nm against a reference wavelength of 490 nm with a SpectraMax Plus 384 Microplate reader (Molecular Devices, Sunnyvale, Calif.).

Matrigel [3] = assay: Sequence-specific competition binding of phage clones against synthetic peptide equivalents; details: synthetic peptide vs cognate phage on Matrigel, n=3
Procedure: Matrigel-coated and blocked 96-well plates were incubated in triplicate with 10^−5-10^−10 M peptide concentrations and 10^9 pfu of phage in 100 μL 0.5% TEST. After 1 h at RT, bound phages were labeled with anti-M13 mAb and color was developed and detected using ABTS absorbance (405-490 nm). Peptide inhibition curves were normalized on a percentage scale to provide an estimate of the IC50, which was calculated using a dose-response curve fit using the Origin 8 data analysis software (Northampton, Mass.) by the formula:
Y=Bottom+(Top−Bottom)/(1+10̂((Log IC50−X)*HillSlope)).

Matrigel [4] = assay: Phage titer count analysis on Matrigel; type: binding; details: phage input 10^12/mL p.f.u., n=3
Excerpt: (§3) In a sequence-specific competition assay, the context-dependence of the phage towards the peptide-collagen IV binding interaction was investigated. […] The binding of phage C-11 was investigated in three independent titer count analyses. Phage titers of C-11 were compared against the library (R0) for binding to Matrigel and collagen IV with an initial phage input of 10^12/mL plaque forming units (p.f.u.).

collagen IV = assay: Phage titer count analysis on collagen IV; type: binding, human; details: phage input 10^12/mL p.f.u., n=3
Excerpt: as §3

[5] = 168 h after single i.v. dose, paclitaxel 10 mg/kg, targeted nanoparticles 35 mg/kg, mean ± SD n=6

CC(=O)O[C@H]1C(=O)[C@@]2(C)[C@H]([C@H](OC(=O)c3ccccc3)[C@]3(O)C[C@H](OC(=O)[C@H](O)[C@@H](NC(=O)c4ccccc4)c4ccccc4)C(C)=C1C3(C)C)[C@]1(OC(C)=O)CO[C@@H]1C[C@@H]2O [paclitaxel]
time after which levels in circulation could not be further detected [1]: 24 h | t1/2α (h), half-life of distribution phase ([1]; iv): 0.64 h | t1/2β (h), half-life of elimination phase ([1]; iv): 8.02 h | MTD (in vivo): 10 mg/kg | hematological finding at day 7 (Swiss albino mice; 10 mg/kg, platelet count<400×10^9/L in two mice): signs of mild thrombocytopenia | lethality (Swiss albino mice; 15 mg/kg dose, 1.2 mg/mL, mice i.v.): immediate death of two mice | ALP, alkaline phosphatase (Swiss albino mice; [5]): 41.7 ± 1.77 U/L | Baso, basophils (Swiss albino mice; [5]): 0.140 ± 0.078% | Eo, eosinophils (Swiss albino mice; [5]): 0.0023 ± 0.004% | HGB, hemoglobin (Swiss albino mice; [5]): 8.81 ± 0.49 mmol/L | LYMPH, lymphocytes (Swiss albino mice; [5]): 0.69 ± 0.13% | MCH, mean cell hemoglobin (Swiss albino mice; [5]): 17.1 ± 0.679 pg | MCHC (Swiss albino mice; [5]): 17.9 ± 0.47 mmol/L | MCV, mean cell volume (Swiss albino mice; [5]): 59.5 ± 1.55 fL | Mono, monocytes (Swiss albino mice; [5]): 0.167 ± 0.064% | NEUT, neutrophils (Swiss albino mice; [5]): 0.002 ± 0.002% | PLT, platelets (Swiss albino mice; [5]): 1026 ± 533 ×10^9/L | RBC, red blood cells (Swiss albino mice; [5]): 8.30 ± 0.598 ×10^12/L | WBC, white blood cells (Swiss albino mice; [5]): 2.05 ± 0.454 ×10^9/L | ALT, alanine aminotransferase (Swiss albino mice; mouse, in vivo): 61.01 ± 6.10 U/L | AST, aspartate aminotransferase (Swiss albino mice; mouse, in vivo): 119.83 ± 8.23 U/L

KIFVWPY [Clone A-9, heptapeptide from phage display against collagen IV; phage clone and synthetic peptide equivalent]
binding to Matrigel compared with the random library (R0) (Matrigel [2]): best candidates | IC50 (Matrigel [3]): 551 nM

KIWKLPQ [Clone C-10, heptapeptide from phage display against collagen IV; phage clone and synthetic peptide equivalent]
binding to Matrigel compared with the random library (R0) (Matrigel [2]): best candidates | IC50 (Matrigel [3]): 917 nM

KLWVLPK [Clone C-11, heptapeptide from phage display against collagen IV; phage clone and synthetic peptide equivalent]
binding to Matrigel compared with the random library (R0) (Matrigel [2]): best candidates | IC50 (Matrigel [3]): 117 nM | Matrigel binding compared to the library (phage titer) (Matrigel [4]): approximately 300 fold | collagen IV binding compared to the library (phage titer) (collagen IV): approximately 900 fold

KVWSLPQ [Clone A-8, heptapeptide from phage display against collagen IV; phage clone and synthetic peptide equivalent]
binding to Matrigel compared with the random library (R0) (Matrigel [2]): best candidates | IC50 (Matrigel [3]): 1200 nM
